{"source": "paper PMC6199744", "about": "“Development of Chemical Proteomics for the Folateome and Analysis of the Kinetoplastid Folateome” (ACS Infectious Diseases, 2018)", "assay_type_in_all_cases": "binding", "key": {"[1]": {"biological_target": "T1, HeLa cell extract proteins (Homo sapiens, UniProt Q9P2J5)", "T1 construct": "endogenous in cells; host or cells: HeLa cell extract", "T1 sequence (Q9P2J5 whole entry)": "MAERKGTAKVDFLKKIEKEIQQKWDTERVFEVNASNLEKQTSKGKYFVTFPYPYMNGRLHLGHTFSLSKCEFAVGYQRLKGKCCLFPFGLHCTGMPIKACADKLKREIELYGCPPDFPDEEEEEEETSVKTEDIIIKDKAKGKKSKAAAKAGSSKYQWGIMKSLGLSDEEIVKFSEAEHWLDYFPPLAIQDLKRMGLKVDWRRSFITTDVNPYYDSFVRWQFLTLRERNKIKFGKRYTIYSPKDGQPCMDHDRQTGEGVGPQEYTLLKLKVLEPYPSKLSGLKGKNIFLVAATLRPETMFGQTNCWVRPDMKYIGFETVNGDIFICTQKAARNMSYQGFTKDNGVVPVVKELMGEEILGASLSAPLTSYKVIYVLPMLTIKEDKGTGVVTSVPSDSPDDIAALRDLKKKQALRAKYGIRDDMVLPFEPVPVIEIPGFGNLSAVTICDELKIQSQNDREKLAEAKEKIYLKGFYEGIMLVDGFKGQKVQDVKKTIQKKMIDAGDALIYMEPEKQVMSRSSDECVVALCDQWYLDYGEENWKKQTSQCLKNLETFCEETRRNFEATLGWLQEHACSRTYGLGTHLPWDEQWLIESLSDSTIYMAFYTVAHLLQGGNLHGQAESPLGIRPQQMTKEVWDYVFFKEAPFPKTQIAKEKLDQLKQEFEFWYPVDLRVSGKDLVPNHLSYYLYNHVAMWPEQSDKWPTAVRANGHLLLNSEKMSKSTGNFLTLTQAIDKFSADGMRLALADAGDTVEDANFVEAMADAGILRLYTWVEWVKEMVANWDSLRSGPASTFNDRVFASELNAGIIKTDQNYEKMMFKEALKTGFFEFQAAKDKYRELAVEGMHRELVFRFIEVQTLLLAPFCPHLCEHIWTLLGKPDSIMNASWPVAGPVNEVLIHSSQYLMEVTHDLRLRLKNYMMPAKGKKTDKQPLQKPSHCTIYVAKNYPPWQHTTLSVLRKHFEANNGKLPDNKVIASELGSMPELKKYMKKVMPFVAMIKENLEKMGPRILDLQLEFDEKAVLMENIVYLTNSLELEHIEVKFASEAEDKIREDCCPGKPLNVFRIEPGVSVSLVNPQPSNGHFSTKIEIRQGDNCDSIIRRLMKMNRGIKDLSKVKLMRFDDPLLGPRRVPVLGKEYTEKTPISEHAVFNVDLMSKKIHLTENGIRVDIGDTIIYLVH"}, "[2]": {"biological_target": "T2, HeLa cell extract proteins (Homo sapiens, UniProt Q6PJG6)", "T2 construct": "endogenous in cells; host or cells: HeLa cell extract", "T2 sequence (Q6PJG6 1-821)": "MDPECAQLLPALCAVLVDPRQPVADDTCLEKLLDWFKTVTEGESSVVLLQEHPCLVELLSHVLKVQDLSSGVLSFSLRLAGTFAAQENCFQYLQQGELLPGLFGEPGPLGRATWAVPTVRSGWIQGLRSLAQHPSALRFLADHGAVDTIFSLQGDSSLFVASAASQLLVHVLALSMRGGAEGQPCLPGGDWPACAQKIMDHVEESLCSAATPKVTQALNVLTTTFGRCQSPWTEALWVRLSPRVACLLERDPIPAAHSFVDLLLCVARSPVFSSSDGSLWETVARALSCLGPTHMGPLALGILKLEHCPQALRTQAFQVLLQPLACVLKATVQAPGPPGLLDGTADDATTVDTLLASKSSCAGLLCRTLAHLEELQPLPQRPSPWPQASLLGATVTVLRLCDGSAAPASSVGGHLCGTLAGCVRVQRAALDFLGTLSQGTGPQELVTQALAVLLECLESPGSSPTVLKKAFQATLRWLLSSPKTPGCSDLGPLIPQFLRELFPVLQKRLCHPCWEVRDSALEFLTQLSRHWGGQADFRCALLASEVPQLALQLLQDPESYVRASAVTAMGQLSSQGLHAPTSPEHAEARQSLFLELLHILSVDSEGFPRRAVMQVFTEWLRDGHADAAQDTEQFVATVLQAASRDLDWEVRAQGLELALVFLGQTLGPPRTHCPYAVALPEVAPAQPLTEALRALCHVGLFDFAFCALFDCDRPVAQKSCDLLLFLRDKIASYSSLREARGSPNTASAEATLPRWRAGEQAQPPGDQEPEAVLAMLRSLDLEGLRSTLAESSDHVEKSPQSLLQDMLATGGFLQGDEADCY"}, "[3]": {"biological_target": "T3, HeLa cell extract proteins (Homo sapiens, UniProt Q15020)", "T3 construct": "endogenous in cells; host or cells: HeLa cell extract", "T3 sequence (Q15020 1-963)": "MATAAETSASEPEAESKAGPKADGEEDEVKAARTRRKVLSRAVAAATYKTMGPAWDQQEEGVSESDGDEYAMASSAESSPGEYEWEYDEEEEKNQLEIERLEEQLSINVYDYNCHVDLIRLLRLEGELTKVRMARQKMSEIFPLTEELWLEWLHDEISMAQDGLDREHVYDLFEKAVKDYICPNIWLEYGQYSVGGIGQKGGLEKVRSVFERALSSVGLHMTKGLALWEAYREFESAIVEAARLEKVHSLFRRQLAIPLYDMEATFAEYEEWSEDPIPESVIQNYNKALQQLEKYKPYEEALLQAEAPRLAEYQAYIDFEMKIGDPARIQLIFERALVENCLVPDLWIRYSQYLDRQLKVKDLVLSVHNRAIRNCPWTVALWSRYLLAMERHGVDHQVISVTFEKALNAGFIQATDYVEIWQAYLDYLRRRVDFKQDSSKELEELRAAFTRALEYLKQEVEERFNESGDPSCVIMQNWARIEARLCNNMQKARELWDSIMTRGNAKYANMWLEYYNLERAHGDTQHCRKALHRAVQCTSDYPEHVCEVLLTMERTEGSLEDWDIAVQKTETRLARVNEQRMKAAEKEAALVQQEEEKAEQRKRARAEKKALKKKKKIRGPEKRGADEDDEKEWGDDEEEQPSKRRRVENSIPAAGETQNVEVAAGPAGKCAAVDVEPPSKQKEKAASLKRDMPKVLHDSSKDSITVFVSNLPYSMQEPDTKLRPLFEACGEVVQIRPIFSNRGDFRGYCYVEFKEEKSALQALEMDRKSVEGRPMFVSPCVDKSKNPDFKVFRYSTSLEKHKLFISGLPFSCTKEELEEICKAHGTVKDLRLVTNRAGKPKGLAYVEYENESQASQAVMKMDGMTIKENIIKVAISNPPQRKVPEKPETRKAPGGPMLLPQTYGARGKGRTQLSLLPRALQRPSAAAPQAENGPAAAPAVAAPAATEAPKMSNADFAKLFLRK"}, "[4]": {"biological_target": "T4, HeLa cell extract proteins (Homo sapiens, UniProt Q8WTW3)", "T4 construct": "endogenous in cells; host or cells: HeLa cell extract", "T4 sequence (Q8WTW3 1-980)": "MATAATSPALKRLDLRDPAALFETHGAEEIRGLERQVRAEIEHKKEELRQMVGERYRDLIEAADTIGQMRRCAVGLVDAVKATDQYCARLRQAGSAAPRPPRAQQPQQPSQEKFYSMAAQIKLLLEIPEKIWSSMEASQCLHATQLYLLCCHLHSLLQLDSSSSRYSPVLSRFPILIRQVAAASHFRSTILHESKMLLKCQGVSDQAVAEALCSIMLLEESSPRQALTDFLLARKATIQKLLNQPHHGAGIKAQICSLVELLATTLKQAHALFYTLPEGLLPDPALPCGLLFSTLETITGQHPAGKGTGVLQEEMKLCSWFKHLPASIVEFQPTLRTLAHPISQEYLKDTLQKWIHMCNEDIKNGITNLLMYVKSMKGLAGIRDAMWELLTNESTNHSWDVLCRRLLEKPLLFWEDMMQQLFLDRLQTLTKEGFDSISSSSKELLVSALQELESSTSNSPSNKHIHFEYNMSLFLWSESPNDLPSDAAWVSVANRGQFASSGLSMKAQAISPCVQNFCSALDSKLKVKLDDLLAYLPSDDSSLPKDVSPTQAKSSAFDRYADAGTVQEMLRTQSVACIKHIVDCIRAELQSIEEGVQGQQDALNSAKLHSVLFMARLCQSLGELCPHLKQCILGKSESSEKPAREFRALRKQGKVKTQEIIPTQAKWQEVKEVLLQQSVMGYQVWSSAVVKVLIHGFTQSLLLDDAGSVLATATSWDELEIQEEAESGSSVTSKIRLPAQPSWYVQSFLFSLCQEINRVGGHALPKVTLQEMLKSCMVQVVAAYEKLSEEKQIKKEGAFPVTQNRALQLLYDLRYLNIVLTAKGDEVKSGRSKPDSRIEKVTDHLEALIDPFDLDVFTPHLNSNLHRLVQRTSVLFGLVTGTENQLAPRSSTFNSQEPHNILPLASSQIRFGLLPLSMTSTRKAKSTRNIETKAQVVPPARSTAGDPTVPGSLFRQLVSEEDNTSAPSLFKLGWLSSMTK", "conditions": "protein COG1; HeLa"}}, "note": "Where two headings read alike, the source gives them in different places."}
{"smiles": "Nc1nc2c(c(=O)[nH]1)N(C=O)C(CNc1ccc(C(=O)N[C@@H](CCC(=O)O)C(=O)O)cc1)CN2", "note": "(stereo partly drawn) [LEU, leucovorin]", "values": [{"measurement": "fold changes relative to vehicle control", "setting": "[1]; HeLa, protein LARS", "result": 1.04}, {"measurement": "fold changes relative to vehicle control", "setting": "[2]; HeLa, protein C7ORF27", "result": 0.75}, {"measurement": "fold changes relative to vehicle control", "setting": "[3]; protein SART3, HeLa", "result": 0.82}]}
{"smiles": "Nc1nc2[nH]cc(CCc3ccc(C(=O)N[C@@H](CCC(=O)O)C(=O)O)cc3)c2c(=O)[nH]1", "note": "[PTX, pemetrexed]", "values": [{"measurement": "fold changes relative to vehicle control", "setting": "[1]", "result": 1.11}, {"measurement": "fold changes relative to vehicle control", "setting": "[2]", "result": 0.88}, {"measurement": "fold changes relative to vehicle control", "setting": "[3]", "result": 0.84}]}
{"smiles": "CCCCCCOc1ccc(Cc2cnc(N)nc2N)cc1", "note": "[compound 1]", "values": [{"measurement": "fold changes relative to vehicle control", "setting": "[4]", "result": 1}]}
{"smiles": "CCCCCCOc1cccc(Cc2cnc(N)nc2N)c1", "note": "[compound 2]", "values": [{"measurement": "fold changes relative to vehicle control", "setting": "[4]", "result": 1.21}]}
{"smiles": "Nc1nc2cccc(-c3ccccc3)c2n1Cc1ccc(Cl)c(Cl)c1", "note": "[compound 3]", "values": [{"measurement": "fold changes relative to vehicle control", "setting": "[4]", "result": 0.98}]}
{"smiles": "NCCOCCOCC(=O)Nc1nc2ncc(CNc3ccc(C(=O)NC(CCC(=O)O)C(=O)O)cc3)nc2c(=O)[nH]1", "note": "(stereo not drawn) [compound 6]", "values": [{"measurement": "fold changes relative to vehicle control", "setting": "[1]; HeLa, protein LARS", "result": 1}, {"measurement": "fold changes relative to vehicle control", "setting": "[2]; HeLa, protein C7ORF27", "result": 1.02}, {"measurement": "fold changes relative to vehicle control", "setting": "[3]; protein SART3, HeLa", "result": 0.89}]}
{"smiles": "NCCCNc1ccc(C(=O)NC(CCC(=O)O)C(=O)O)cc1", "note": "(stereo not drawn) [compound 7]", "values": [{"measurement": "fold changes relative to vehicle control", "setting": "[1]; HeLa, protein LARS", "result": 1.13}, {"measurement": "fold changes relative to vehicle control", "setting": "[2]; HeLa, protein C7ORF27", "result": 0.87}, {"measurement": "fold changes relative to vehicle control", "setting": "[3]; protein SART3, HeLa", "result": 0.94}]}
